Literature values as cited in patent publication US20250170152A1, “Cannabinoid Dosage Form” (priority 2022, published 2025).
Like-named read-outs stand apart in the source and are kept apart here.

How the values were obtained:
[1] = not given; remark: listed apart in the source
[2] = oral THC formulations
[3] = 20 mg/kg/day CBD groups, EMA LGS/DS Assessment Report (Epidiolex)
[4] = oral 800 mg CBD, eight subjects (Haney et al., 2016)

Row | Compound | TEAE decrease of appetite, incidence [3] [%] | weight loss, incidence [3] [%] | TEAE of diarrhoea, incidence (5-20 mg/kg/day, LGS/DS population (Epidiolex)) | TEAE of diarrhoea, incidence (25-50 mg/kg/day, TSC population, EMA TSC Assessment Report (Epidiolex)) | mean Cmax ([1]; one hour after oral capsule containing 5.4 mg CBD (Nadulski et al., 2005a)) [ng/mL] | mean Cmax ([1]; oral 10 mg CBD (Guy and Robson, 2004b)) [ng/mL] | mean Cmax [1, 4] [ng/mL] | mean Tmax [1, 4] [h] | time CBD remained detectable after administration ([1]; oral capsule 5.4 mg CBD (Nadulski et al., 2005b)) [h] | mean Cmax ([1]; oral capsule 5.4 mg CBD, subset (n=12) with standard breakfast meal 1 h after the capsules) [ng/mL] | delay to reach peak plasma concentration [2] [min]
1 | C=C(C)C1CCC(C)=CC1c1c(O)cc(CCCCC)cc1O (centres unmarked) [CBD, 2-[3-methyl-6-(1-methylethenyl)-2-cyclohexen-1-yl]-5-pentyl-1,3-benzenediol] | 22 | 11 | 12.9-21.2% | 30.7-56.2% | 0.93 | 2.47 | 77.9 | 3.0 | 3 to 4 | 1.13 | –
2 | CCCCCc1cc(O)c2c(c1)OC(C)(C)[C@@H]1CCC(C)=C[C@@H]21 [THC, delta-9-tetrahydrocannabinol] | – | – | – | – | – | – | – | – | – | – | ~120
